Source: the CheMixHub viscosity set
± gives the uncertainty stated by the source.

Assay: xn = mol fraction of the nth substance listed

ClC(Cl)=C(Cl)Cl + ClC(Cl)(Cl)Cl
Conditions	viscosity [mPa·s]
298.15 K, 101 kPa, x2 = 0.0973	0.8311 ± 0.0071
298.15 K, 101 kPa, x2 = 0.1594	0.8241 ± 0.007
298.15 K, 101 kPa, x2 = 0.244	0.8182 ± 0.007
298.15 K, 101 kPa, x2 = 0.3103	0.8153 ± 0.0069
298.15 K, 101 kPa, x2 = 0.4139	0.813 ± 0.0069
298.15 K, 101 kPa, x2 = 0.4636	0.8122 ± 0.0069
298.15 K, 101 kPa, x2 = 0.5633	0.814 ± 0.0069
298.15 K, 101 kPa, x2 = 0.63	0.8216 ± 0.007
298.15 K, 101 kPa, x2 = 0.6339	0.8211 ± 0.007
298.15 K, 101 kPa, x2 = 0.7582	0.8392 ± 0.0071
298.15 K, 101 kPa, x2 = 0.8067	0.8482 ± 0.0072
298.15 K, 101 kPa, x2 = 0.9135	0.8744 ± 0.0074
303.15 K, 101.33 kPa, x1 = 0.3238	0.818 ± 0.007
303.15 K, 101.33 kPa, x1 = 0.402	0.814 ± 0.007
303.15 K, 101.33 kPa, x1 = 0.56	0.808 ± 0.007
303.15 K, 101.33 kPa, x1 = 0.6543	0.801 ± 0.007
303.15 K, 101.33 kPa, x1 = 0.7629	0.8 ± 0.007
303.15 K, 101.33 kPa, x1 = 0.8308	0.798 ± 0.007
303.15 K, 101.33 kPa, x1 = 0.9128	0.797 ± 0.007

CCOCCOCCO + ClC(Cl)=C(Cl)Cl
298.15 K, 101.33 kPa
Conditions	viscosity [mPa·s]
x1 = 0.0123	0.859 ± 0.009
x1 = 0.0256	0.874 ± 0.009
x1 = 0.0478	0.903 ± 0.009
x1 = 0.0645	0.928 ± 0.009
x1 = 0.0824	0.956 ± 0.009
x1 = 0.097	0.979 ± 0.01
x1 = 0.1126	1.012 ± 0.01
x1 = 0.1488	1.081 ± 0.011
x1 = 0.1758	1.135 ± 0.011
x1 = 0.2057	1.196 ± 0.012
x1 = 0.2427	1.278 ± 0.013
x1 = 0.2829	1.371 ± 0.013
x1 = 0.3332	1.493 ± 0.015
x1 = 0.3756	1.61 ± 0.016
x1 = 0.4139	1.717 ± 0.017
x1 = 0.4562	1.843 ± 0.018
x1 = 0.4889	1.949 ± 0.019
x1 = 0.5216	2.063 ± 0.02
x1 = 0.5734	2.246 ± 0.022
x1 = 0.6176	2.412 ± 0.024
x1 = 0.6576	2.552 ± 0.026
x1 = 0.6972	2.699 ± 0.027
x1 = 0.7396	2.858 ± 0.029
x1 = 0.8033	3.119 ± 0.032
x1 = 0.854	3.335 ± 0.034
x1 = 0.8945	3.519 ± 0.036
x1 = 0.9227	3.64 ± 0.038
x1 = 0.9398	3.718 ± 0.039
x1 = 0.9556	3.786 ± 0.039
x1 = 0.9736	3.873 ± 0.04
x2 = 0.0112	3.936 ± 0.041

CCOCCOCCO + ClC=C(Cl)Cl
298.15 K, 101.33 kPa
Conditions	viscosity [mPa·s]
x1 = 0.0082	0.539 ± 0.006
x1 = 0.0263	0.563 ± 0.006
x1 = 0.0381	0.58 ± 0.006
x1 = 0.0517	0.602 ± 0.006
x1 = 0.0641	0.62 ± 0.006
x1 = 0.0756	0.639 ± 0.007
x1 = 0.0944	0.669 ± 0.007
x1 = 0.129	0.736 ± 0.007
x1 = 0.1724	0.823 ± 0.008
x1 = 0.2108	0.91 ± 0.009
x1 = 0.2459	0.997 ± 0.01
x1 = 0.2921	1.117 ± 0.011
x1 = 0.3336	1.235 ± 0.012
x1 = 0.3791	1.376 ± 0.014
x1 = 0.4231	1.528 ± 0.015
x1 = 0.457	1.659 ± 0.016
x1 = 0.4908	1.788 ± 0.018
x1 = 0.5204	1.902 ± 0.019
x1 = 0.557	2.042 ± 0.02
x1 = 0.5875	2.163 ± 0.021
x1 = 0.632	2.342 ± 0.023
x1 = 0.6736	2.519 ± 0.025
x1 = 0.7163	2.701 ± 0.027
x1 = 0.7635	2.912 ± 0.029
x1 = 0.7976	3.068 ± 0.031
x1 = 0.8333	3.224 ± 0.033
x1 = 0.8779	3.423 ± 0.035
x1 = 0.9203	3.621 ± 0.037
x1 = 0.9414	3.723 ± 0.039
x1 = 0.9717	3.857 ± 0.04
x2 = 0.018	3.895 ± 0.041

CCCCCCCCCCCCCC + Clc1ccccc1
viscosity [mPa·s], 101 kPa
Conditions	x1 = 0.1001	x1 = 0.1937	x1 = 0.295	x1 = 0.3916	x1 = 0.494	x1 = 0.5998	x1 = 0.6984	x1 = 0.8002	x1 = 0.9001
298.15 K	0.844 ± 0.083	0.945 ± 0.091	1.063 ± 0.1	1.151 ± 0.11	1.266 ± 0.12	1.38 ± 0.13	1.495 ± 0.14	1.609 ± 0.15	1.724 ± 0.16
303.15 K	0.789 ± 0.078	0.877 ± 0.085	0.964 ± 0.093	1.097 ± 0.1	1.161 ± 0.11	1.226 ± 0.11	1.291 ± 0.12	1.354 ± 0.12	1.419 ± 0.13
308.15 K	0.746 ± 0.074	0.819 ± 0.081	0.932 ± 0.09	0.991 ± 0.095	1.041 ± 0.099	1.19 ± 0.11	1.241 ± 0.12	1.219 ± 0.11	1.397 ± 0.13

ClC(Cl)=C(Cl)Cl + Clc1ccccc1
303.15 K, 101 kPa
Conditions	viscosity [mPa·s]
x1 = 0.1416	0.716 ± 0.017
x1 = 0.2048	0.717 ± 0.016
x1 = 0.2727	0.718 ± 0.015
x1 = 0.3562	0.72 ± 0.014
x1 = 0.4651	0.728 ± 0.013
x1 = 0.5412	0.739 ± 0.012
x1 = 0.6279	0.751 ± 0.011
x1 = 0.718	0.766 ± 0.01
x1 = 0.8422	0.786 ± 0.009
x1 = 0.9302	0.802 ± 0.008

O=C(c1ccccc1)c1ccc2n1CCC2C(=O)[O-].[NH3+]C(CO)(CO)CO (stereo not given) + O
viscosity [mPa·s], 101 kPa
Conditions	293.15 K	298.15 K	303.15 K	308.15 K	313.15 K
x1 = 0.0002	1.037 ± 0.021	0.9251 ± 0.021	0.8319 ± 0.021	0.7538 ± 0.021	0.688 ± 0.021
x1 = 0.0007	1.071 ± 0.027	0.9598 ± 0.021	0.8666 ± 0.021	0.7882 ± 0.021	0.723 ± 0.034
x1 = 0.001	1.105 ± 0.022	0.9936 ± 0.022	0.9005 ± 0.021	0.822 ± 0.021	0.7569 ± 0.021

O=C[C@H](O)[C@@H](O)[C@H](O[C@@H]1O[C@H](CO)[C@H](O)[C@H](O)[C@H]1O)[C@H](O)CO + O
viscosity [mPa·s]
Conditions	100 kPa	101 kPa
293.15 K, x1 = 0.002	–	1.074 ± 0.022
293.15 K, x1 = 0.004	–	1.155 ± 0.024
293.15 K, x1 = 0.005	–	1.241 ± 0.026
298.15 K, x1 = 0.002	0.976 ± 0.02	0.9875 ± 0.021
298.15 K, x1 = 0.004	–	1.065 ± 0.022
298.15 K, x1 = 0.005	–	1.149 ± 0.024
303.15 K, x1 = 0.002	0.873 ± 0.018	0.8893 ± 0.018
303.15 K, x1 = 0.004	–	0.9654 ± 0.02
303.15 K, x1 = 0.005	–	1.047 ± 0.022
308.15 K, x1 = 0.001805	–	0.784 ± 0.017
308.15 K, x1 = 0.002	0.786 ± 0.016	0.7922 ± 0.017
308.15 K, x1 = 0.003683	–	0.864 ± 0.019
308.15 K, x1 = 0.004	–	0.8716 ± 0.018
308.15 K, x1 = 0.005	–	0.9524 ± 0.02
308.15 K, x1 = 0.005432	–	0.934 ± 0.02
308.15 K, x1 = 0.006317	–	0.966 ± 0.021
308.15 K, x1 = 0.007218	–	1.012 ± 0.022
308.15 K, x1 = 0.008098	–	1.063 ± 0.023
313.15 K, x1 = 0.002	0.709 ± 0.015	0.7014 ± 0.015
313.15 K, x1 = 0.004	–	0.7822 ± 0.016
313.15 K, x1 = 0.005	–	0.8636 ± 0.018
318.15 K, x1 = 0.001802	–	0.601 ± 0.013
318.15 K, x1 = 0.002729	–	0.621 ± 0.014
318.15 K, x1 = 0.003613	–	0.642 ± 0.014
318.15 K, x1 = 0.004521	–	0.67 ± 0.015
318.15 K, x1 = 0.006298	–	0.725 ± 0.016
318.15 K, x1 = 0.007249	–	0.757 ± 0.017
318.15 K, x1 = 0.01074	–	0.885 ± 0.019
